Measurements as given in patent publication US11999716B2, “WDR5 inhibitors and modulators” (priority 2018, dated 2024).

tested on: MV4:11 human cancer cell lines; experiment: Cellular viability / anti-proliferative activity, CellTiter-Glo, 5 day protocol; type: cell-based; settings: Homo sapiens, MV4-11, 120 h, MV4:11 cells; 5 day incubation; CellTiter-Glo; mean of minimum two replicates; read-out: GI50 on cellular proliferation of MV4:11 human cancer cell lines
Procedure, shortened: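 Cells seeded at 200 per well (7200 cells/mL) with compound in 2-fold serial dilutions from 30 μM top (22 points), 0.3% DMSO final. Viability read by CellTiter-Glo luminescence after 5 days; GI50 from sigmoidal dose-response fit, mean of at least two replicates.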

Row | Structure (SMILES) | GI50 [nM]
1 | COc1ccnc(CN2CCc3c(cc(Cn4ccccc4=N)cc3-c3cn(C)nc3C)C2=O)c1 [Example 117, 5-(1,3-Dimethyl-1H-pyrazol-4-yl)-7-((2-iminopyridin-1(2H)-yl)methyl)-2-((4-methoxypyridin-2-yl)methyl)-3,4-dihydroisoquinolin-1(2H)-one] | > 938
2 | COc1cc(CN2CCc3c(cc(CNC(=N)C4CC4)cc3-c3ccc(F)cc3C)C2=O)cc(OC)c1 [Example 118, N-((2-(3,5-Dimethoxybenzyl)-5-(4-fluoro-2-methylphenyl)-1-oxo-1,2,3,4-tetrahydroisoquinolin-7-yl)methyl)cyclopropanecarboximidamide] | 159
3 | COc1ccnc(CN2CCc3c(cc(CNC(=N)C4CC4)cc3-c3cn(C)nc3C)C2=O)c1 [Example 119, N-((5-(1,3-Dimethyl-1H-pyrazol-4-yl)-2-((4-methoxypyridin-2-yl)methyl)-1-oxo-1,2,3,4-tetrahydroisoquinolin-7-yl)methyl)cyclopropanecarboximidamide] | > 938
4 | COc1ccnc(CN2CCc3c(cc(CNC(=N)C(F)(F)F)cc3-c3cn(C)nc3C(F)(F)F)C2=O)c1 [Example 120, 2,2,2-Trifluoro-N-((2-((4-methoxypyridin-2-yl)methyl)-5-(1-methyl-3-(trifluoromethyl)-1H-pyrazol-4-yl)-1-oxo-1,2,3,4-tetrahydroisoquinolin-7-yl)methyl)acetimidamide] | > 938
5 | COc1cc(CN2CCc3c(cc(Cn4cnn(C)c4=N)cc3-c3ccc(F)cc3C)C2=O)cc(OC)c1 [Example 121, 2-(3,5-Dimethoxybenzyl)-5-(4-fluoro-2-methylphenyl)-7-((5-imino-1-methyl-1,5-dihydro-4H-1,2,4-triazol-4-yl)methyl)-3,4-dihydroisoquinolin-1(2H)-one] | 134
6 | COc1cc(CN2CCc3c(cc(Cn4cnn(C)c4=N)cc3-c3cn(C)nc3C(F)(F)F)C2=O)cc(OC)c1 [Example 122, 2-(3,5-Dimethoxybenzyl)-7-((5-imino-1-methyl-1,5-dihydro-4H-1,2,4-triazol-4-yl)methyl)-5-(1-methyl-3-(trifluoromethyl)-1H-pyrazol-4-yl)-3,4-dihydroisoquinolin-1(2H)-one] | < 50
7 | CCn1cc(-c2cc(Cn3cnn(C)c3=N)cc3c2CCN(Cc2cc(OC)ccn2)C3=O)c(C(F)(F)F)n1 [Example 123, 5-(1-Ethyl-3-(trifluoromethyl)-1H-pyrazol-4-yl)-7-((5-imino-1-methyl-1,5-dihydro-4H-1,2,4-triazol-4-yl)methyl)-2-((4-methoxypyridin-2-yl)methyl)-3,4-dihydroisoquinolin-1(2H)-one] | < 50
8 | COc1cc(CN2CCc3c(cc(Cn4cnn(C)c4=N)cc3-c3ncc(F)cc3C)C2=O)cc(OC)c1 [Example 124, 2-(3,5-Dimethoxybenzyl)-5-(5-fluoro-3-methylpyridin-2-yl)-7-((5-imino-1-methyl-1,5-dihydro-4H-1,2,4-triazol-4-yl)methyl)-3,4-dihydroisoquinolin-1(2H)-one] | 935
9 | COc1ccnc(CN2CCc3c(cc(Cn4nc5ccccn5c4=N)cc3-c3cn(C)nc3C(F)(F)F)C2=O)c1 [Example 125, 7-((3-Imino-[1,2,4]triazolo[4,3-a]pyridin-2(3H)-yl)methyl)-2-((4-methoxypyridin-2-yl)methyl)-5-(1-methyl-3-(trifluoromethyl)-1H-pyrazol-4-yl)-3,4-dihydroisoquinolin-1(2H)-one] | > 938
10 | Cc1ccnc([C@H](C2CC2)N2CCc3c(cc(Cn4cnn(C)c4=N)cc3-c3ccc(F)cc3C)C2=O)c1 [Example 126, (S)-2-(Cyclopropyl(4-methylpyridin-2-yl)methyl)-5-(4-fluoro-2-methylphenyl)-7-((5-imino-1-methyl-1,5-dihydro-4H-1,2,4-triazol-4-yl)methyl)-3,4-dihydroisoquinolin-1(2H)-one] | < 50
11 | COc1cc(CN2CCc3c(cc(Cn4cnn(C)c4=N)cc3-c3ccc(C)nc3C)C2=O)cc(OC)c1 [Example 127, 2-(3,5-Dimethoxybenzyl)-5-(2,6-dimethylpyridin-3-yl)-7-((5-imino-1-methyl-1,5-dihydro-4H-1,2,4-triazol-4-yl)methyl)-3,4-dihydroisoquinolin-1(2H)-one] | 345
12 | CCn1cc(-c2cc(Cn3cnn(C)c3=N)cc3c2CCN(Cc2cc(C)nn2C)C3=O)c(C(F)(F)F)n1 [Example 128, 2-((1,3-Dimethyl-1H-pyrazol-5-yl)methyl)-7-((5-imino-1-methyl-1,5-dihydro-4H-1,2,4-triazol-4-yl)methyl)-5-(1-ethyl-3-(trifluoromethyl)-1H-pyrazol-4-yl)-3,4-dihydroisoquinolin-1(2H)-one] | > 938
13 | CCc1ccnc(CN2CCc3c(cc(Cn4cnn(C)c4=N)cc3-c3cn(CC)nc3C(F)(F)F)C2=O)c1 [Example 129, 5-(1-Ethyl-3-(trifluoromethyl)-1H-pyrazol-4-yl)-2-((4-ethylpyridin-2-yl)methyl)-7-((5-imino-1-methyl-1,5-dihydro-4H-1,2,4-triazol-4-yl)methyl)-3,4-dihydroisoquinolin-1(2H)-one] | < 50
14 | COc1ccnc(CN2CCc3c(cc(Cn4cnsc4=N)cc3-c3cn(C)nc3C(F)(F)F)C2=O)c1 [Example 130, 7-((5-Imino-1,2,4-thiadiazol-4(5H)-yl)methyl)-2-((4-methoxypyridin-2-yl)methyl)-5-(1-methyl-3-(trifluoromethyl)-1H-pyrazol-4-yl)-3,4-dihydroisoquinolin-1(2H)-one] | 845
15 | COc1cc(CN2CCc3cc(F)c(CNC4=NCCN4)cc3C2=O)cc(OC)c1 [Example 133, 7-(((4,5-Dihydro-1H-imidazol-2-yl)amino)methyl)-2-(3,5-dimethoxybenzyl)-6-fluoro-3,4-dihydroisoquinolin-1(2H)-one] | 173
16 | COc1ccnc(CN2CCc3c(cc(CNC4=NCCO4)cc3-c3cn(C)nc3C)C2=O)c1 [Example 134, 7-(((4,5-Dihydrooxazol-2-yl)amino)methyl)-5-(1,3-dimethyl-1H-pyrazol-4-yl)-2-((4-methoxypyridin-2-yl)methyl)-3,4-dihydroisoquinolin-1(2H)-one] | > 938

Other lines, results leading:

Row | GI50 [nM] | Structure (SMILES)
17 | > 938 | COc1ccnc(CN2CCc3c(cc(CNc4nnc5ccccn45)cc3-c3cn(C)nc3C(F)(F)F)C2=O)c1 [Example 135, 7-(([1,2,4]Triazolo[4,3-a]pyridin-3-ylamino)methyl)-2-((4-methoxypyridin-2-yl)methyl)-5-(1-methyl-3-(trifluoromethyl)-1H-pyrazol-4-yl)-3,4-dihydroisoquinolin-1(2H)-one]
18 | > 938 | COc1ccnc(CN2Cc3c(cc(Cn4ccn(C)c4=N)cc3C3CC3)C2=O)c1 [Example 136, 4-Cyclopropyl-6-((2-imino-3-methyl-2,3-dihydro-1H-imidazol-1-yl)methyl)-2-((4-methoxypyridin-2-yl)methyl)isoindolin-1-one]
19 | 944 | CCn1cc(-c2cc(Cn3ccn(C)c3=N)cc3c2CN(Cc2cc(OC)ccn2)C3=O)c(C(F)(F)F)n1 [Example 137, 4-(1-Ethyl-3-(trifluoromethyl)-1H-pyrazol-4-yl)-6-((2-imino-3-methyl-2,3-dihydro-1H-imidazol-1-yl)methyl)-2-((4-methoxypyridin-2-yl)methyl)isoindolin-1-one]
20 | 2280 | COc1ccnc(CN2Cc3c(cc(Cn4ccn(C)c4=N)cc3-c3ccc(F)cc3C)C2=O)c1 [Example 138, 4-(4-Fluoro-2-methylphenyl)-6-((2-imino-3-methyl-2,3-dihydro-1H-imidazol-1-yl)methyl)-2-((4-methoxypyridin-2-yl)methyl)isoindolin-1-one]
21 | > 938 | COc1ccnc(CN2Cc3c(cc(Cn4ccn(C)c4=N)cc3-c3cccnc3C)C2=O)c1 [Example 139, 6-((2-Imino-3-methyl-2,3-dihydro-1H-imidazol-1-yl)methyl)-2-((4-methoxypyridin-2-yl)methyl)-4-(2-methylpyridin-3-yl)isoindolin-1-one]
22 | 200 | COc1cc(CN2CCCc3c(cc(Cn4ccn(C)c4=N)cc3-c3ccc(F)cc3C)C2=O)cc(OC)c1 [Example 140, 2-(3,5-Dimethoxybenzyl)-6-(4-fluoro-2-methylphenyl)-8-((2-imino-3-methyl-2,3-dihydro-1H-imidazol-1-yl)methyl)-2,3,4,5-tetrahydro-1H-benzo[c]azepin-1-one]
23 | > 938 | COc1cc(CN2CCCc3c(cc(Cn4ccnc4C)cc3-c3ccc(F)cc3C)C2=O)cc(OC)c1 [Example 141, 2-(3,5-dimethoxybenzyl)-6-(4-fluoro-2-methylphenyl)-8-((2-methyl-1H-imidazol-1-yl)methyl)-2,3,4,5-tetrahydro-1H-benzo[c]azepin-1-one]
24 | > 938 | Cc1cc([C@H](C)N2CCc3c(cc(CNc4cccc(=O)[nH]4)cc3-c3cn(C)nc3C(F)(F)F)C2=O)ccc1F [Example 142, (S)-2-(1-(4-Fluoro-3-methylphenyl)ethyl)-5-(1-methyl-3-(trifluoromethyl)-1H-pyrazol-4-yl)-7-(((6-oxo-1,6-dihydropyridin-2-yl)amino)methyl)-3,4-dihydroisoquinolin-1(2H)-one]

same assay, conditions: Homo sapiens, MV4-11, 120 h, read-out: GI50 on cellular proliferation of MV4:11 human cancer cell lines

Row | Structure (SMILES) | GI50 [nM]
25 | COc1ccnc(CN2CCc3c(cc(Cc4cncn4C)cc3-c3cn(C)nc3C(F)(F)F)C2=O)c1 [Example 131, 2-((4-Methoxypyridin-2-yl)methyl)-7-((1-methyl-1H-imidazol-5-yl)methyl)-5-(1-methyl-3-(trifluoromethyl)-1H-pyrazol-4-yl)-3,4-dihydroisoquinolin-1(2H)-one] | > 938
26 | COc1ccnc(CN2CCc3c(cc(Cc4ncc[nH]4)cc3-c3cn(C)nc3C(F)(F)F)C2=O)c1 [Example 132, 7-((1H-Imidazol-2-yl)methyl)-2-((4-methoxypyridin-2-yl)methyl)-5-(1-methyl-3-(trifluoromethyl)-1H-pyrazol-4-yl)-3,4-dihydroisoquinolin-1(2H)-one] | < 50
